ChEMBL document CHEMBL1201862, “PubChem BioAssay data set” (2004)
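Results reflect a 48-hour exposure of cells in 96-well plates to compound at five concentrations. GI50 marks 50% less growth.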 Calls of active or inactive are those of the source. No stated cut-off is given here; in the data, active = GI50 up to about 1.1 µM and inactive = higher.

Experiments:
Assay in all cases: NCI anticancer screen, dose series, 48 h
PC-3 = tested on: PC-3
OVCAR-8 = tested on: OVCAR-8
OVCAR-5 = tested on: OVCAR-5
LOX IMVI = tested on: LOX IMVI
HOP-62 = tested on: HOP-62
HOP-92 = tested on: HOP-92
MOLT-4 = tested on: MOLT-4
OVCAR-3 = tested on: OVCAR-3
HCC 2998 = tested on: HCC 2998
COLO 205 = tested on: COLO 205
MDA-MB-231 = tested on: MDA-MB-231
K562 = tested on: K562
T47D = tested on: T47D
CAKI-1 = tested on: CAKI-1
HL-60 = tested on: HL-60
SF-295 = tested on: SF-295
786-0 = tested on: 786-0
SK-MEL-5 = tested on: SK-MEL-5
SNB-19 = tested on: SNB-19
OVCAR-4 = tested on: OVCAR-4

| SMILES | GI50 (PC-3) | GI50 (OVCAR-8) | GI50 (OVCAR-5) | GI50 (LOX IMVI) | GI50 (HOP-62) | GI50 (HOP-92) | GI50 (MOLT-4) | GI50 (OVCAR-3) | GI50 (HCC 2998) | GI50 (COLO 205) | GI50 (MDA-MB-231) | GI50 (K562) | GI50 (T47D) | GI50 (CAKI-1) | GI50 (HL-60) | GI50 (SF-295) | GI50 (786-0) | GI50 (SK-MEL-5) | GI50 (SNB-19) | GI50 (OVCAR-4) |
| --- | --- | --- | --- | --- | --- | --- | --- | --- | --- | --- | --- | --- | --- | --- | --- | --- | --- | --- | --- | --- |
| BrCC[N+]12CC[N+](CCBr)(CC1)C2 | > 100 µM (inactive) | > 100 µM (inactive) | > 100 µM (inactive) | > 100 µM (inactive) | 39.1 µM (inactive) | > 100 µM (inactive) | > 100 µM (inactive) | > 100 µM (inactive) | > 100 µM (inactive) | > 100 µM (inactive) | > 100 µM (inactive) | > 100 µM (inactive) | > 100 µM (inactive) | > 100 µM (inactive) | > 100 µM (inactive) | > 100 µM (inactive) | > 100 µM (inactive) | > 100 µM (inactive) | > 100 µM (inactive) | > 100 µM (inactive) |
| CN(C)CCCC12CCCCC1=Nc1ccccc12 (stereo not given) | > 100 µM (inactive) | > 100 µM (inactive) | > 100 µM (inactive) | > 100 µM (inactive) | > 100 µM (inactive) | > 100 µM (inactive) | > 100 µM (inactive) | > 100 µM (inactive) | > 100 µM (inactive) | 48.2 µM (inactive) | > 100 µM (inactive) | 74 µM (inactive) | > 100 µM (inactive) | > 100 µM (inactive) | 26.1 µM (inactive) | > 100 µM (inactive) | > 100 µM (inactive) | > 100 µM (inactive) | > 100 µM (inactive) | > 100 µM (inactive) |
| SC1=Nc2ccccc2-c2nc(-c3cccc(Cl)c3)cc(-c3ccccc3)c2C1 | 7.57 µM (inactive) | 1.07 µM (active) | 5.77 µM (inactive) | 3.15 µM (inactive) | 1.86 µM (inactive) | 1.09 µM (active) | 19.6 µM (inactive) | 3.4 µM (inactive) | 3.24 µM (inactive) | 7.82 µM (inactive) | 1.64 µM (inactive) | 4.86 µM (inactive) | 2.19 µM (inactive) | 2 µM (inactive) | 15 µM (inactive) | 3.37 µM (inactive) | 0.971 µM (active) | 26.8 µM (inactive) | 1.2 µM (inactive) | 0.347 µM (active) |
